According to PMC5187884, “In Vitro Antitumor Active Gold(I) Triphenylphosphane Complexes Containing 7-Azaindoles” (International Journal of Molecular Sciences, 2016):

Experiments:
[1] = tested on: A2780 human ovarian carcinoma cell line; experiment: In vitro cytotoxicity testing (MTT assay), A2780; format: cell-based; conditions: 24 h exposure time; for IC50: MTT assay, read-out: IC50 ± SD, A2780
Procedure: Human A2780 ovarian carcinoma, A2780R cisplatin-resistant ovarian carcinoma and MRC-5 normal fibroblast cell lines were supplied by the European Collection of Cell Cultures (ECACC). The cell lines were cultured, according to the supplier´s instructions, in RPMI-1640 medium supplemented with 10% of fetal calf serum, 1% of 2 mM glutamine, and 1% penicillin/streptomycin. All cell lines were grown as adherent monolayers at 37 °C and 5% CO2 in a humidified atmosphere.

[2] = tested on: MRC-5 normal fibroblast cell line; experiment: In vitro cytotoxicity testing (MTT assay), MRC-5; format: cell-based, human; conditions: 24 h exposure time; for IC50: MTT assay, read-out: IC50 ± SD, MRC5
Procedure: (§1) The cell lines were cultured, according to the supplier´s instructions, in RPMI-1640 medium supplemented with 10% of fetal calf serum, 1% of 2 mM glutamine, and 1% penicillin/streptomycin. All cell lines were grown as adherent monolayers at 37 °C and 5% CO2 in a humidified atmosphere.

[3] = tested on: A2780 human ovarian carcinoma cells; experiment: Cell cycle analysis by flow cytometry (PI/RNase staining); format: cell-based; conditions: A2780 cells treated at IC50 concentration, 24 h; for S cell cycle phase population: control 9.0% ± 1.9%; for G2 cell cycle phase population: control 24.0% ± 2.6%; for G0/G1 cell cycle phase population: control 66.3% ± 3.8%
Procedure: The obtained results are depicted in Figure 4.
A2780 cells (1.0 × 10^6 per well) were pre-incubated in a six-well plate for 24 h, as described above. […] After 24 h, floating cells were collected and attached cells were harvested using trypsin/EDTA in PBS. Total cells were washed twice with PBS and fixed in 70% ethanol. Cells were resuspended in PBS and DNA staining was achieved by a solution of propidium iodide (PI) supplemented with RNase A (30 min, 25 °C, in the dark). After that, the cells were washed (PBS), resuspended (PBS), and DNA content was measured using flow cytometry (CytoFlex, Beckman Coulter, Brea, CA, USA) detecting emission of DNA-bound PI (maximum at 617 nm) after excitation at 535 nm. The data were analysed using CytExpert^TM software (Beckman Coulter).

[4] = tested on: A2780R cisplatin-resistant ovarian carcinoma cell line; experiment: In vitro cytotoxicity testing (MTT assay), A2780R; format: cell-based, human; conditions: 24 h exposure time; for IC50: MTT assay, read-out: IC50 ± SD, A2780R
Procedure: as §1

[5] = Solubility
[6] = Solution behaviour in water/DMF mixture (1H and 31P-NMR); format: physicochemical; conditions: 50% DMF-d7/50% D2O, ca. 1 mM, 48 h at ambient temperature
Procedure: Only one set of ^1H-NMR signals (e.g., C3–H signal at 6.50 ppm) and one ^31P-NMR signal (34.8 ppm) were detected on the fresh solution, and no changes were observed even after 48 h of standing at ambient temperature. The positions of the ^1H and ^31P-NMR signals detected on the solution of 8 in the 50% DMF-d7/50% D2O mixture were different from those of free H2Me4Claza (C3–H signal at 6.32 ppm; Figure 3), PPh3 (^31P-NMR signal at −4.7 ppm), the oxidized triphenylphosphane (O=PPh3; ^31P-NMR signal at 32.4 ppm) or [AuCl(PPh3)] (^31P-NMR signal at 34.2 ppm) dissolved in the same mixture of solvents (Figure S6).
(§2) Complex 8 and [AuCl(PPh3)] […] Similar solutions were prepared with 1 or 5 mol equivs of GSH, Cys, or BSA. ^1H and ^31P-NMR spectra were recorded at different time points over 48 h at 300 K. The obtained ^1H-NMR spectra were calibrated against the residual signal of water found at 4.75 ppm, while the ^31P-NMR spectra were referenced as described above.

[7] = target: T1, bovine serum albumin (BSA) (Bos taurus, UniProt P02769); experiment: Interaction study with bovine serum albumin (NMR); conditions: 50% DMF-d7/50% D2O
T1 construct: purchased Sigma-Aldrich Co. (Prague, Czech Republic) and Fisher-Scientific Co. (Pardubice, Czech Republic)
Procedure: An interaction of 8 with bovine serum albumin (BSA) resulted immediately in a white turbidity, which was subsequently removed by centrifugation (13,000 rpm for 3 min; Mini Spin, Eppendorf AG, Hamburg, Germany). The ^1H-NMR spectrum recorded on the obtained supernatant contained the signals of the released N-donor ligand, with the signal positions (e.g., C3–H signal at 6.36 ppm) being consistent with those detected for free H2Me4Claza in the same mixture of solvents (Figure S8). No signals were detected in the ^31P-NMR spectra recorded on the mentioned supernatant.
as §2

[8] = Stability in DMF-d7 (1H and 31P-NMR); format: physicochemical; conditions: 1H-NMR and 31P-NMR, ambient temperature
[9] = tested on: U266 human myeloma cells; parameters: method as in PMID 20542334; conditions: cited from earlier work
[10] = tested on: A2780 cells with acquired resistance to cisplatin; parameters: method as in PMID 22322463; conditions: cited from earlier work
[11] = tested on: A2780 cells; parameters: method as in PMID 22322463; conditions: cited from earlier work
[12] = tested on: A549 human lung carcinoma cells; parameters: method as in PMID 24763048; conditions: as compared with untreated cells; cited from earlier work

T1 sequence (P02769 25-607): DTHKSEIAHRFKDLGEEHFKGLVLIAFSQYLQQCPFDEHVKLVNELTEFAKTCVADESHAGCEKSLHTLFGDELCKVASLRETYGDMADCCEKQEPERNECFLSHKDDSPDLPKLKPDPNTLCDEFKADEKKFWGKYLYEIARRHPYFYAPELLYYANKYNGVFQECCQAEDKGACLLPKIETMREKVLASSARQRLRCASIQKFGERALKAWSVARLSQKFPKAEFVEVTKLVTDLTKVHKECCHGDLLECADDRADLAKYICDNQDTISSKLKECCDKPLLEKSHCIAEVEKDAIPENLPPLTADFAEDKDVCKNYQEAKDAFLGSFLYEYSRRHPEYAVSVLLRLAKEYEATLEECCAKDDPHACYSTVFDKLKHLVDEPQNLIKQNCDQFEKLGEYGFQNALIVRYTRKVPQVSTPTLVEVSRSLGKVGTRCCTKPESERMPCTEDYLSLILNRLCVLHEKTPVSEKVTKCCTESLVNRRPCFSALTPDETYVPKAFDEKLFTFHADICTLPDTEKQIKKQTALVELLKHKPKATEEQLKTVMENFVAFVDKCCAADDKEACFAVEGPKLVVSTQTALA

| Compound | IC50 [1] [µM] | IC50 [2] [µM] | IC50 [4] [µM] | SI = selectivity index (IC50(MRC5)/IC50(A2780)) [2] | RF = resistance factor (IC50(A2780R)/IC50(A2780)) [4] | in vitro cytotoxicity against A2780 compared with cisplatin [1] | other results |
| --- | --- | --- | --- | --- | --- | --- | --- |
| N.N.[Cl][Pt][Cl] [Cisplatin, cisplatin, reference compound] | 20.3 ± 2.3 | > 50 | > 50 |  |  |  | cell cycle modification (phase arrest) [3]: S-arrest; S cell cycle phase population [3]: 44.8% ± 2.9% |
| c1ccc([P]([Au][n]2ccc3cccnc32)(c2ccccc2)c2ccccc2)cc1 [Complex 1, [Au(aza)(PPh3)]] | 3.8 ± 1.1 | 7.7 ± 1.7 | 4.4 ± 0.8 | 2.0 | 1.2 |  | solubility in the used medium ([5]; cell culture medium, dilution of 50 mM DMF stock): less soluble; cell cycle modification (phase arrest) [3]: G2-arrest; S cell cycle phase population [3]: 7.2% ± 0.9%; G2 cell cycle phase population [3]: 44.0% ± 2.3%; G0/G1 cell cycle phase population [3]: 46.0% ± 2.8% |
| Clc1c[n]([Au][P](c2ccccc2)(c2ccccc2)c2ccccc2)c2ncccc12 [Complex 2, [Au(3Claza)(PPh3)]] | 22.4 ± 5.7 | 31.4 ± 4.9 | 21.7 ± 0.8 | 1.4 | 1.0 | comparable |  |
| Brc1c[n]([Au][P](c2ccccc2)(c2ccccc2)c2ccccc2)c2ncccc12 [Complex 3, [Au(3Braza)(PPh3)]] | 23.3 ± 3.4 | 27.3 ± 1.7 | 21.3 ± 0.8 | 1.2 | 0.9 | comparable |  |
| Ic1c[n]([Au][P](c2ccccc2)(c2ccccc2)c2ccccc2)c2ncccc12 [Complex 4, [Au(3Iaza)(PPh3)]] | 3.5 ± 0.4 | 29.2 ± 5.9 | 11 ± 4.7 | 8.3 |  |  |  |
| Brc1cnc2c(cc[n]2[Au][P](c2ccccc2)(c2ccccc2)c2ccccc2)c1 [Complex 5, [Au(5Braza)(PPh3)]] | 3.1 ± 0.5 | 26 ± 4.2 | 14.4 ± 3.3 | 8.4 |  |  | cell cycle modification (phase arrest) [3]: G2-arrest; S cell cycle phase population [3]: 9.1% ± 2.1%; G2 cell cycle phase population [3]: 30.4% ± 2.9%; G0/G1 cell cycle phase population [3]: 58.1% ± 5.8% |
| Clc1c[n]([Au][P](c2ccccc2)(c2ccccc2)c2ccccc2)c2ncc(Br)cc12 [Complex 6, [Au(3Cl5Braza)(PPh3)]] | 22.9 ± 2.3 | 26.5 ± 3.7 | 13.8 ± 2.1 | 1.2 | 0.6 | comparable |  |
| Brc1cnc2c(c1)c(I)c[n]2[Au][P](c1ccccc1)(c1ccccc1)c1ccccc1 [Complex 7, [Au(3I5Braza)(PPh3)]] | 20.2 ± 2.5 | 27.3 ± 2.6 | 22.1 ± 0.3 | 1.4 | 1.1 | comparable |  |
| Cc1cc2c(Cl)ccnc2[n]1[Au][P](c1ccccc1)(c1ccccc1)c1ccccc1 [Complex 8, [Au(2Me4Claza)(PPh3)]] | 2.8 ± 0.7 | 26.9 ± 3.6 | 8.9 ± 3.8 | 9.6 |  | more than seven times higher | solubility in water [5]: low solubility in water; hydrolytic stability [6]: hydrolytically stable; interaction with BSA [7]: replaces the N-donor ligand 2Me4Claza |
| [Cl][Au].c1ccc(P(c2ccccc2)c2ccccc2)cc1 [[AuCl(PPh3)], chlorido-triphenylphosphanegold(I) complex] |  |  |  |  |  |  | stability in DMF-d7 [8]: low stability |
| CC[PH](CC)(CC)[Au][S][C@@H]1O[C@H](COC(C)=O)[C@@H](OC(C)=O)[C@H](OC(C)=O)[C@H]1OC(C)=O [auranofin, triethylphosphane-(2,3,4,6-tetra-O-acetyl-β-D-thiopyranosato)gold(I) complex] |  |  |  |  |  |  | cell cycle arrest [9]: G0/G1 cell cycle arrest; RF (resistance factor) [10]: ca. 0.9; potency in vitro against A2780 cells relative to cisplatin [11]: ca. three-fold higher; sub-G1 cell cycle phase population increase [12]: > 13% |
